Assay [1] addresses T1, Estrogen receptor (Ovis aries) (UniProt P49885+Q9TU15). The experiment in a line: Relative binding affinity for lamb uterine estrogen receptor at 25 degree C. The assay is classed as protein assay.
For assay [2], the target named is T1, Estrogen receptor (Ovis aries). The experiment in a line: Relative binding affinity for lamb uterine estrogen receptor at 4C. It is filed as protein assay.

Consider `CO[C@H]1C[C@@]2(C)[C@@H](CC[C@@]2(O)/C=C\Cl)[C@@H]2CCc3cc(O)ccc3[C@H]21`, for which the RBA in assay [1] came out at 195; in assay [2], 22.

Turning to `C[C@]12CC[C@@H]3c4ccc(O)cc4CC[C@H]3[C@@H]1CC[C@@]2(O)/C=C/Cl`, the RBA was determined as 89 in assay [1] and 102 in assay [2].

For the molecule `C=C[C@H]1C[C@@]2(C)[C@@H](CC[C@@]2(O)/C=C\I)[C@@H]2CCc3cc(O)ccc3[C@H]21`, the RBA in assay [1] was determined as 1200; in assay [2], 98.

Consider `C[C@]12CC[C@@H]3c4ccc(O)cc4CC[C@H]3[C@@H]1CC[C@@]2(O)/C=C/I`, for which the figures for the RBA in assay [1] and in assay [2] were 62 and 77, respectively.

Turning to `CO[C@H]1C[C@@]2(C)[C@@H](CC[C@@]2(O)/C=C/Cl)[C@@H]2CCc3cc(O)ccc3[C@H]21`, the values for the RBA in assay [1] and in assay [2] were 65 and 29, respectively.

Consider `CO[C@H]1C[C@@]2(C)[C@@H](CC[C@@]2(O)/C=C/I)[C@@H]2CCc3cc(O)ccc3[C@H]21`, for which the values for the RBA in assay [1] and in assay [2] were 65 and 34, respectively.

Take `C=C[C@H]1C[C@@]2(C)[C@@H](CC[C@@]2(O)/C=C/I)[C@@H]2CCc3cc(O)ccc3[C@H]21`: the results for the RBA in assay [1] and in assay [2] were 447 and 78, respectively.

Take `C=C[C@H]1C[C@@]2(C)[C@@H](CC[C@@]2(O)/C=C/Cl)[C@@H]2CCc3cc(O)ccc3[C@H]21`: the figures for the RBA in assay [1] and in assay [2] were 724 and 107, respectively.

In the case of `C[C@]12CC[C@@H]3c4ccc(O)cc4CC[C@H]3[C@@H]1CC[C@@]2(O)/C=C\Cl`, the RBA in assay [1] worked out at 199; in assay [2] it was 126.

Take `C[C@]12CC[C@@H]3c4ccc(O)cc4CC[C@H]3[C@@H]1CC[C@@]2(O)/C=C\I`: the RBA stood at 776 in assay [1] and 202 in assay [2].

For the molecule `CO[C@H]1C[C@@]2(C)[C@@H](CC[C@@]2(O)/C=C\I)[C@@H]2CCc3cc(O)ccc3[C@H]21`, the figures for the RBA in assay [1] and in assay [2] were 513 and 48, respectively.

On to `C=C[C@H]1C[C@@]2(C)[C@@H](CC[C@@]2(O)/C=C\Cl)[C@@H]2CCc3cc(O)ccc3[C@H]21`, for which the RBA in assay [1] was 704; in assay [2] it was 101.

Values taken from ChEMBL document CHEMBL1131386, “Synthesis and evaluation of 11beta-substituted 21-chloro/iodo-(17alpha,20E/Z)-19-norpregna-1,3,5(10),20-te traene-3, 17beta-diols: high-affinity ligands for the estrogen receptor” (J Med Chem, 1998).
